pIC50: −log10 of the molar value.

For assay [1], the system named is PTDSS2 gene-disrupted (PTDSS2-KO) HCT116 cells. Nature of the assay: cells. Conditions: Homo sapiens, HCT-116, 72 h, read-out: Test Example 3 PTDSS2-KO HCT116 GI50.
Experimental: McCoy's 5A medium containing 10% bovine serum was used as the culture medium for each cell. […] They were added to each well of 384-well plates at 40 nL/well using an Echo555 (Labcyte Inc.). […] On the day of compound addition (day 0) and 3 days after compound addition (day 3), 10 μL/well of CellTiter-Glo® 2.0 Assay (Promega, #G9242), which is a reagent for ATP measurement, was added to each well, and the amount of luminescence in each well was measured with EnVision. From the amount of luminescence on the day of compound addition (C0) and the amount of luminescence of the compound non-addition group (C3) and compound addition group (T3) after 3 days of culture, cell viability was calculated based on the following formula. Cell viability (%)=[(T3−C0)/(C3−C0)]×100
The target in the next assay is PSS1 (Homo sapiens, UniProt P48651). Nature of the assay: biochemical.
Assay [2] concerns PTDSS2-KO A375 cell-subcutaneous transplanted model. Nature of the assay: Test Example 8: Antitumor activity on PTDSS2-KO A375 cell-subcutaneous transplanted model. The class given is in vivo, female BALB/c-nu/nu mice. The settings on record: orally, once daily for 10 successive days (QD×10), test end date. From the text:
PTDSS2-KO A375 cells were transplanted to a right subcutaneous axillary portion of female BALB/c-nu/nu mice at a proportion of 1×10^6 cells/head, and when the tumor volume reached 100 to 300 mm^3 (estimated tumor volume (major axis×minor axis×minor axis/2)), mice were divided into groups of 6 each such that there was no difference between groups. The female BALB/c-nu/nu mice were purchased from CHARLES RIVER LABORATORIES JAPAN, INC. The compound of Example 42 was orally administered from the day of grouping, once daily for 10 successive days (QD×10). The tumor volume was measured until the next day of completion of the administration (test end date). 0.5% methylcellulose (MC) was administered to the vehicle control group as the vehicle.
The antitumor activity on PTDSS2-KO A375 cell-subcutaneous transplanted model of Test Example 8 was calculated by the following formula on each test end date. TGI %=(1−TVt/TVc)×100 • TGI: Tumor growth suppression rate • TVt: Group mean tumor volume of compound administration group on test end date • TVc: Group mean tumor volume of vehicle control group on test end date

The next assay concerns ZR-75-1 cells. Nature of the assay: Test Example 6: Cell growth suppression activity 3 (ZR-75-1). The class given is cell-based. Conditions: 144 h; ZR-75-1 cells derived from human breast cancer, 6 days of culture, ATP measurement (CellTiter-Glo 2.0). On the procedure:
ZR-75-1 cells derived from human breast cancer were used. […] ZR-75-1 cells were purchased from ATCC. ZR-75-1 cells were seeded into 96 well plates at 5,000 cells/50 μL/well (day −1). The compound of Example 42 was serially diluted and prepared (10 steps, 20 μM-6 nM) and added to each well of 96 well plates at 50 μL/well. […] Cell viability (%)=[(T6−C0)/(C6−C0)]×100

Assay [3] deals with PTDSS2-KO HCT116 cell-subcutaneous transplanted model. Nature of the assay: Test Example 4: Antitumor activity on PTDSS2-KO HCT116 cell-subcutaneous transplanted model. The class given is in vivo, female BALB/c-nu/nu mice. The settings on record: oral, QD × 13, test end date. From the text:
HCT116 cell-subcutaneous transplanted model PTDSS2-KO HCT116 cells were transplanted to a right subcutaneous axillary portion of female BALB/c-nu/nu mice at a proportion of 1×10^7 cells/head, and when the tumor volume reached 100 to 300 mm^3 (estimated tumor volume (major axis×minor axis×minor axis/2)), mice were divided into groups of 6 or 5 mice each such that there was no difference between groups. The female BALB/c-nu/nu mice were purchased from CHARLES RIVER LABORATORIES JAPAN, INC. The compounds of Examples 58, 57, 53, 30, 42, 32, 34, 33, and 31 were orally administered from the day of grouping in the dosing schedule shown in Table 12 (twice daily, 11 successive days (BID×11), or once daily, 13 successive days (QD×13)). The tumor volume was measured until the next day of completion of the administration (test end date). 0.5% methylcellulose (MC) was administered to the vehicle control group as the vehicle.
TGI %=(1−TVt/TVc)×100 • TGI: Tumor growth suppression rate • TVt: Group mean tumor volume of compound administration group on test end date • TVc: Group mean tumor volume of vehicle control group on test end date

In a further assay the test system is HCT116 cells. Nature of the assay: cells. Conditions: Homo sapiens, HCT-116, 72 h, read-out: Test Example 3 HCT116 GI50.
The test system of a further assay is NCI-N87 cells. Nature of the assay: Test Example 5: Cell growth suppression activity 2 (NCI-N87). The class given is cell-based. Conditions: 168 h; NCI-N87 cells derived from human stomach cancer, 7 days of culture, ATP measurement (CellTiter-Glo 2.0). On the procedure: NCI-N87 derived from human stomach cancer was used. […] NCI-N87 cells were purchased from ATCC. NCI-N87 cells were seeded into 96 well plates at 5,000 cells/50 μL/well (day −1). The compound of Example 42 was serially diluted and prepared (10 steps, 20 μM-6 nM) and added to each well of 96 well plates at 50 μL/well. […] Cell viability (%)=[(T7−C0)/(C7−C0)]×100
(ATP-based viability assays read luminescence as a measure of living cells.)

Another assay has as its system Jeko-1 cells. Nature of the assay: Test Example 7: Cell growth suppression activity 4 (Jeko-1). Type of assay: cell-based. The settings on record: 72 h; Jeko-1 cells derived from human mantle cell lymphoma, 3 days of culture, ATP measurement (CellTiter-Glo 2.0). As to the method:
Jeko-1 cells derived from human mantle cell lymphoma were used. […] Jeko-1 cells were purchased from ATCC. Jeko-1 cells were seeded into 96 well plates at 50,000 cells/50 μL/well (day 0). The compound of Example 42 was serially diluted and prepared (10 steps, 30 μM-3 nM) and added to each well of 96 well plates at 50 μL/well. […] Cell viability (%)=[(T3−C0)/(C3−C0)]×100

The GI50 is the concentration at which growth is held to half of that of the control. For orientation: pIC50 means the negative decadic logarithm of the IC50, by convention in mol/L. Read a high pIC50 as a small IC50. Regarding `CC(F)(F)CN1C(=O)c2[nH]nc(-c3cccc4[nH]c(=O)oc34)c2[C@@H]1c1ccc(Oc2cc(C(F)(F)F)cc(C(F)(F)F)c2)cc1` [Example 42, (−)-7-[4-{4-[3,5-bis(trifluoromethyl)phenoxy]phenyl}-5-(2,2-difluoropropyl)-6-oxo-1,4,5,6-tetrahydropyrrolo[3,4-c]pyrazol-3-yl]-1,3-benzoxazol-2(3H)-one], the GI50 is 14 nM in assay [1]; 2900 nM in the assay with ZR-75-1 cells; over 25000 nM with HCT116 cells; 7.4 nM with NCI-N87 cells; 417 nM in the assay with Jeko-1 cells. The same compound gave a pIC50 at PSS1 of 6.70. The “TGI (%)” value in assay [2] (Dose 3 mg/kg) was 47%; in assay [2] (Dose 10 mg/kg), 100%; in assay [2] (Dose 30 mg/kg), 100%; in assay [2] (Dose 100 mg/kg), 100%; in assay [3] (10 mg/kg), 97%; in assay [3] (20 mg/kg), 98%. In addition, the “TGI (%)” value in assay [3] (40 mg/kg) is recorded as 99%.

The values above are taken from patent publication US12240855B2, “Pyrrolopyrazole derivative” (DAIICHI SANKYO COMPANY, LIMITED, priority 2019, dated 2025).
